Laboratory results reported in US9084423B2, “Inhibition of bacterial biofilms with imidazole derivatives” (North Carolina State University, priority 2007, dated 2015).
Structures can show the parent of a compound that is named as a salt.

Key:
[1] = test system: P. aeruginosa; test: Biofilm inhibition screen of TABLE 1, P. aeruginosa; assay type: cell-based, Pseudomonas aeruginosa; parameters: key: “X” denotes biofilm inhibition; details: 500 μM active compound, 24 hours
Method: (§1) Each compound was assayed for the ability to inhibit the formation of P. aeruginosa biofilms. […] We employed a standard crystal violet reporter assay to assess for the formation of biofilms. Briefly, P. aeruginosa strain PAO1 was allowed to form biofilms in a multi-well plate in the absence or presence of our compounds. Planktonic (or free growing) bacteria were then removed, wells washed vigorously, and crystal violet added. Crystal violet stains the remaining bacteria which, following ethanol solubilization, can be quantitated by spectrophotometry (A540).
(§2) Active compounds were tested for inhibition of biofilm formation using various bacterial strains. Assays were performed as reported above, with 500 μM active compound, and 24 hours. “X” denotes biofilm inhibition.

[2] = test system: V. Vulnificus; test: Biofilm inhibition screen of TABLE 1, V. vulnificus; assay type: cell-based, Vibrio vulnificus; parameters: key: “X” denotes biofilm inhibition; details: 500 μM active compound, 24 hours
Method: as §1, §2

[3] = test system: H. Pacifica; test: Biofilm inhibition screen of TABLE 1, H. pacifica; assay type: cell-based, Halomonas pacifica; parameters: key: “X” denotes biofilm inhibition; details: 500 μM active compound, 24 hours
Method: as §1, §2

[4] = test system: P. aeruginosa strain PAO1; test: Static biofilm inhibition assay (crystal violet), PAO1; assay type: cell-based, Pseudomonas aeruginosa; details: for IC50: inhibition of biofilm formation, crystal violet, 24 hours
Method: as §1
(§3) An overnight culture of the bacterial strain being screened against was subcultured at an OD600 of 0.1 into the media used (listed below with strain) and then pipetted into test tubes along with a predetermined concentration of our compound of interest. Test tubes were then poured into tilted Petri dishes and 100 μL of media, strain and compound were then transferred into 96-well PVC microtiter plates. These microtiter plates were then covered, wrapped in Saran™ Wrap polyethylene film (S.C. Johnson, Racine, Wis.) and allowed to incubate at 37° C. for 24 hours. After that time, the medium was discarded and the plates were thoroughly washed with water. The remaining biofilm that was formed during incubation was stained with 100 μL of a 0.1% crystal violet solution and allowed to incubate at room temperature for 30 minutes. After 30 minutes, the crystal violet was discarded and washed thoroughly again with water. The remaining crystal violet that had stained the biofilm in the inside walls of the 96-well PVC plates was solubilized with 200 μL of 95% ethanol. The quantification of biofilm formation was accomplished by transferring 125 μL of the ethanol solution into a polystyrene microtiter dish, which was read by spectrophotometry (A540). After the background has been subtracted from each row, a percent inhibition can be calculated by dividing the amount of crystal violet in wells that contained compound by the amount of crystal violet in wells that contained bacteria only. Each concentration reported during the course of this study was repeated two to five times with each of those biofilm inhibition assays being done in 6 replicates each.
(§4) An overnight culture of the wild type strain was subcultured at an OD600 of 0.10 into LBNS along with a predetermined concentration of the small molecule to be tested for biofilm inhibition. Samples were then aliquoted (100 μL) into the wells of a 96-well PVC microtiter plate. The microtiter dishes were covered and sealed before incubation under stationary conditions at 37° C. for 24 hours. After that time, the medium was discarded and the plates thoroughly washed with water. The wells were then inoculated with a 0.1% aqueous solution of crystal violet (100 μL) and allowed to stand at ambient temperature for 30 minutes. Following another thorough washing with water the remaining stain was solubilized with 200 μL of 95% ethanol. Biofilm inhibition was quantitated by measuring the OD540 for each well by transferring 125 μL of the ethanol solution into a fresh polystyrene microtiter dish for analysis.
(§5) To examine each compound's ability to inhibit the formation of Pseudomonas aeruginosa biofilms, PAO1 and PA14 were employed as the target bacterial strains using a crystal violet reporter assay. G. A. O'Toole, R. Kolter, Mol. Microbiol. 1998, 28, 449. All compounds were initially screened at 500 μM for anti-biofilm activity.
An overnight culture of the wild type strain was subcultured at an OD600 of 0.10 into LBNS along with a predetermined concentration of the small molecule to be tested for biofilm inhibition. Samples were then aliquoted (100 μL) into the wells of a 96-well PVC microtiter plate. The microtiter dishes were covered and sealed before incubation under stationary conditions at 37° C. for 24 hours, After that time, the medium was discarded and the plates thoroughly washed with water. […]

[5] = test system: P. aeruginosa PA14; test: Static biofilm inhibition assay (crystal violet), PA14; assay type: cell-based, Pseudomonas aeruginosa; details: for inhibition at 500 µM: PA14, 24 h; for IC50: inhibition of biofilm formation, crystal violet, 24 hours
Method: as §3, §4, §5
as §4, with “for 24 hours, After that” for “for 24 hours. After that”, “violet (100 pt) and allowed” for “violet (100 μL) and allowed”

[6] = test system: planktonic P. aeruginosa PAO1; test: Planktonic growth (growth curves, colony counts), PAO1; assay type: cell-based, Pseudomonas aeruginosa; details: growth curves and/or colony counts, presence vs absence of compound, at IC50 or as stated
Text: To answer the question of whether the compounds were antibiotics or true inhibitors of biofilm formation, we tested the ability of both compounds to inhibit growth of planktonic P. aeruginosa. Growth was quantitated by measuring optical density at 600 nm. […]

[7] = test system: planktonic P. aeruginosa PA14; test: Planktonic growth (growth curves, colony counts), PA14; assay type: cell-based, Pseudomonas aeruginosa; details: growth curves and/or colony counts, presence vs absence of compound, at IC50 or as stated
[8] = listed as oroidin 4, Hydrochloride
[9] = listed as oroidin 5, Hydrochloride
[10] = listed as oroidin (5), Hydrochloride
[11] = listed as sventrin 24, Hydrochloride
[12] = listed as sventrin (6), Hydrochloride

SMILES: NC[C@@H]1Cc2nc(N)[nH]c2C[C@@H]1CN
- P. aeruginosa biofilm inhibition [1]: X

SMILES: NC[C@H]1Cc2nc(N)[nH]c2C[C@@H]1CN
- P. aeruginosa biofilm inhibition [1]: X
- V. Vulnificus biofilm inhibition [2]: X
- H. Pacifica biofilm inhibition [3]: X

SMILES: Nc1nc(Cc2c[nH]cn2)c[nH]1
- V. Vulnificus biofilm inhibition [2]: X
- H. Pacifica biofilm inhibition [3]: X

SMILES: Nc1nc(Cc2c[nH]c3ccccc23)c[nH]1
- P. aeruginosa biofilm inhibition [1]: X
- H. Pacifica biofilm inhibition [3]: X

SMILES: Nc1nc(/C=C/CNC(=O)c2cc(Br)c(Br)[nH]2)c[nH]1
- H. Pacifica biofilm inhibition [3]: X

SMILES: Nc1ncc2n1CCC2
- V. Vulnificus biofilm inhibition [2]: X

SMILES: NC1=N/C(=C\CCNC(=O)c2cc(Br)c(Br)[nH]2)C(=O)N1
- H. Pacifica biofilm inhibition [3]: X

SMILES: Cl.Cn1c(C(=O)NCCCCc2c[nH]c(N)n2)cc(Br)c1Br [Compound 30, 4,5-dibromo-1-methyl-pyrrole-2-carboxylic acid [4-(2-amino-1H-imidazol-4-yl)-butyl]-amide hydrochloride]
- inhibition at 500 µM ([4]; Pseudomonas aeruginosa, PAO1): > 95%
- IC50 ([4]; Pseudomonas aeruginosa, PAO1): 150 ± 17 µM
- inhibition at 500 µM ([5]; Pseudomonas aeruginosa): > 95%
- IC50 ([5]; Pseudomonas aeruginosa, PA14): 126 ± 17 µM
- microbicidal effect on PAO1 planktonic growth (in words) [6]: no microbicidal activity
- microbicidal effect on PA14 planktonic growth (in words) [7]: no microbicidal activity

SMILES: Cl.Cn1c(C(=O)NCCc2c[nH]cn2)cc(Br)c1Br [Compound 40, 4,5-dibromo-1-methyl-pyrrole-2-carboxylic acid [2-(1H-imidazol-4-yl)-ethyl]-amide hydrochloride]
- inhibition at 500 µM ([4]; Pseudomonas aeruginosa, PAO1): 73%
- IC50 ([4]; Pseudomonas aeruginosa, PAO1): 277 ± 35 µM
- inhibition at 500 µM ([5]; Pseudomonas aeruginosa): 82%
- IC50 ([5]; Pseudomonas aeruginosa, PA14): 203 ± 25 µM
- microbicidal effect on PAO1 planktonic growth (in words) [6]: not inhibiting biofilm development through microbicidal activity
- microbicidal effect on PA14 planktonic growth (in words) [7]: not inhibiting biofilm development through microbicidal activity

SMILES: Nc1nc(CCCNC(=O)c2cc(Br)c[nH]2)c[nH]1 [drawing 73]
- P. aeruginosa biofilm inhibition [1]: X
- H. Pacifica biofilm inhibition [3]: X

SMILES: Nc1nc(CCCNC(=O)c2cc(Br)c(Br)[nH]2)c[nH]1 [drawing 74]
- H. Pacifica biofilm inhibition [3]: X

SMILES: Nc1ncc(/C=C/CNC(=O)c2cc(Br)c(Br)[nH]2)[nH]1 [oroidin, Oroidin Hydrochloride, reference compound]
- inhibition at 500 µM ([4]; Pseudomonas aeruginosa, PAO1): > 95%
- IC50 ([4]; Pseudomonas aeruginosa, PAO1): 190 µM
- inhibition of PAO1 biofilm formation (in words) ([4]; screen at 500 μM): very potent inhibitors
- inhibition at 500 µM ([5]; Pseudomonas aeruginosa): > 95%
- IC50 ([5]; Pseudomonas aeruginosa, PA14): 166 µM
- inhibition of PA14 biofilm formation (in words) ([5]; screen at 500 μM): very potent inhibitors
- microbicidal effect on PAO1 planktonic growth (in words) [6, 8]: remained unchanged
- microbicidal effect on PAO1 planktonic growth (in words) [6, 9]: did not induce microbial cell death
- microbicidal effect on PAO1 planktonic growth (in words) [6, 10]: not due to a bactericidal effect
- microbicidal effect on PA14 planktonic growth (in words) [7, 8]: remained unchanged
- microbicidal effect on PA14 planktonic growth (in words) [7, 9]: did not induce microbial cell death
- microbicidal effect on PA14 planktonic growth (in words) [7, 10]: not due to a bactericidal effect

SMILES: Cn1c(C(=O)NC/C=C/c2cnc(N)[nH]2)cc(Br)c1Br [sventrin, Sventrin Hydrochloride, reference compound]
- IC50 [4]: 75 ± 5 µM
- IC50 [5]: 115 ± 3 µM
- microbicidal effect on PAO1 planktonic growth (in words) [6, 11]: did not induce microbial cell death
- microbicidal effect on PAO1 planktonic growth (in words) [6, 12]: not due to a bactericidal effect
- microbicidal effect on PA14 planktonic growth (in words) [7, 11]: did not induce microbial cell death
- microbicidal effect on PA14 planktonic growth (in words) [7, 12]: not due to a bactericidal effect
